Test results: US10414797B2, “Gelatinase inhibitors and use thereof” (Iproteos S.L, priority 2015, dated 2019)
Where a SMILES comes first, the peptide text is derived from it. [ ]: non-standard residue; d: D form. The star is where a group is joined. ξ: configuration not given here. Pro(trans-4-F) = O=C(O)[C@@H]1C[C@@H](F)CN1; Benzoyl(3,5-F2) = O=C(c1cc(F)cc(F)c1)*; NMeIle(3ξ) = CCC(C)[C@H](NC)C(=O)O; NMeA = CN[C@@H](C)C(=O)O; Dab = NCC[C@H](N)C(=O)O; Hexanoyl = CCCCCC(=O)*; Bz = O=C(c1ccccc1)*; NHOH = ON*

What was measured:
Type in all cases: biochemical
MMP-2 = MMP-2 (Homo sapiens (Human), UniProt P08253); assay: MMP-2 inhibition assay (fluorimetric, DQ gelatin substrate); details: recombinant MMP-2 (CHO cells) 85 ng/mL, DQ gelatin 50 μg/mL, 2 hours at room temperature, pH 7.6
MMP-2, sequence (P08253 110-660): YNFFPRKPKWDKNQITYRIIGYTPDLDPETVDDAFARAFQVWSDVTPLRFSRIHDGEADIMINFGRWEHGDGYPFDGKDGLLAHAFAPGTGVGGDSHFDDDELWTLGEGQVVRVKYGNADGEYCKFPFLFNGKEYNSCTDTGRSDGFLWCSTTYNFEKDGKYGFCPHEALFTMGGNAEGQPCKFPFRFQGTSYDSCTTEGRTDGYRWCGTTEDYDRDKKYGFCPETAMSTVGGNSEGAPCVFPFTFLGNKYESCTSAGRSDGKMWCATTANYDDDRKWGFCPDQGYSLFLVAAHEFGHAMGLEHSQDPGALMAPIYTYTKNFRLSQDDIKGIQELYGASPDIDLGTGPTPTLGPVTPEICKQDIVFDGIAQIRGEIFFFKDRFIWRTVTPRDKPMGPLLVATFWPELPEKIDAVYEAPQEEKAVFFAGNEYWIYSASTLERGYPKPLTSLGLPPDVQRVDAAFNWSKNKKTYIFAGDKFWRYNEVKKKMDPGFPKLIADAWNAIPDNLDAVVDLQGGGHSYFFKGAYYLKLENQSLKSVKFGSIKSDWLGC
Method: (§1) All the experiments were done in 1× reaction buffer, which was obtained from a 10× reaction buffer solution. The content of the 10× reaction buffer was: 50 mL of 0.5 M Tris-HCl, 1.5 M NaCl, 50 mM CaCl2 and 2 mM sodium azide at pH 7.6. To obtain the 1× reaction buffer 4 mL of the 10× reaction buffer were diluted in 36 mL of H2O.
Recombinant MMP-2 expressed in Chinese hamster ovary (CHO) cells was obtained from Merck-Millipore (catalog number PF023-5UG). DQ gelatin from pig skin fluorescein conjugated (MMP-2 substrate) was obtained from Life Technologies (catalog number E12055).
Preparation of the MMP-2 for the activity assay: MMP-2 was provided as a stock solution (0.1 mg/mL). The enzyme was diluted in 1× reaction buffer to a final concentration of 5 μg/mL.
Preparation of the DQ gelatin (substrate) solution for the activity assay: the solid form of the substrate was dissolved in water in order to obtain a stock solution of 1 mg/mL.
Procedure: The enzymatic assays were performed in 96-well microtiter plate, which allowed simultaneous monitoring of multiple reactions. For each reaction, 86.3 μL of 1× reaction buffer (pH 7.6), 1.7 μL of MMP-2 (final concentration 85 ng/mL) and 2 μL of the corresponding new compound were added to each well. A stock solution of new compound was prepared in DMSO (100 mM), and dilutions were prepared from this stock solution with DMSO. Finally, to the mixture contained in each well 10 μL of the substrate were added (final concentration 50 μg/mL). The reaction was incubated for 2 hours at room temperature in an orbital shaker (100 rpm).
The inhibitory activity of the new compound was measured fluorimetrically. The excitation and emission wavelengths were 483 and 525 nm, respectively.
Inhibitory activity at several concentration points (ranging from 100 pM to 200 μM MMP) were measured for each compound. The inhibitory activity on MMP-2 and MMP-9 was calculated according to eq 1. For each new compound, the fluorescence in the presence (a) and in the absence (b) of the corresponding MMP was measured. The maximum fluorescence (0% inhibitory activity) was obtained from a sample of the corresponding MMP in the absence of inhibitory compounds. To estimate the inhibitory potency of the novel compounds, activities were plotted against the log concentration of the compound, adjusting to a sigmoid curve using GraphPad Prism software, and the IC50 value, defined as the concentration of compound required to inhibit 50% of the corresponding MMP activity, was determined from resulting curve.
a corresponds to fluorescence intensity in the presence of substrate+test compound+MMP
b corresponds to the fluorescence intensity in the presence of substrate+tested compound
c corresponds to the fluorescence intensity in the presence of substrate+MMP
d corresponds to the fluorescence intensity of the presence of substrate

MMP-3 = MMP-3 (Homo sapiens (Human), UniProt P08254); assay: MMP-3 inhibition assay (fluorogenic peptide substrate); details: recombinant MMP-3 7.7 nM, Mca-RPKPVE-Nval-WRK(Dnp)-NH2 10 μM, 4 hours at room temperature; tested at 1, 10, 100 and 200 μM
MMP-3, sequence (P08254 100-477): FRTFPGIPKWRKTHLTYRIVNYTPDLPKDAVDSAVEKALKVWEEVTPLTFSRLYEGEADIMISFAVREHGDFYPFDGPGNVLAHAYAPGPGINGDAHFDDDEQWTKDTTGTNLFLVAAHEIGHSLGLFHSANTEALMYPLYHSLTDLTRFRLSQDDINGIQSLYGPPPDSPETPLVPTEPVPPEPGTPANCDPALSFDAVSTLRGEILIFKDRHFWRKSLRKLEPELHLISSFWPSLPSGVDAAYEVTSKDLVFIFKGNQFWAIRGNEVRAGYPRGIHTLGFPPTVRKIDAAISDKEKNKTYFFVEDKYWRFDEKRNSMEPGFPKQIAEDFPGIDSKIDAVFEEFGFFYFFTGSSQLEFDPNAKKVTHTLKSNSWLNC
Method: as §1
Recombinant MMP-3 expressed in E. Coli was obtained from Merck-Millipore (catalog number 44217). Mca-RPKPVE-Nval-WRK(Dnp)-NH2 (fluorogenic peptide substrate) was obtained from R&D Systems (catalog number ES002).
Preparation of the MMP-3 for the activity assay: MMP-3 was provided as a stock solution (0.1 mg/mL). The enzyme was diluted in water to a final concentration of 0.005 mg/mL.
MMP-3 peptide substrate was provided as a stock solution in DMSO (4.5 mM). For the assay, the substrate was diluted 1× reaction buffer to a concentration of 100 μM.
(§2) Procedure: The enzymatic assays were performed in 96-well microtiter plate, which allowed simultaneous monitoring of multiple reactions. For each reaction, 84.6 μL of 1× reaction buffer (pH 7.6), 3.4 μL of MMP-3 (final concentration 7.7 nM) and 2 μL of the corresponding new compound were added to each well. A stock solution of new compound was prepared in DMSO (100 mM), and dilutions were prepared from this stock solution with DMSO. Finally, to the mixture contained in each well 10 μL of the substrate were added (final concentration 10 μM). The reaction was incubated for 4 hours at room temperature in an orbital shaker (90 rpm).
(§3) The inhibitory activity of the new compound was measured fluorimetrically. The excitation and emission wavelengths were 320 and 405 nm, respectively.
(§4) Inhibitory activity at several concentration points (1, 10, 100 and 200 μM) were measured for each compound. The inhibitory activity on MMP-1, MMP-3 and MMP-7 was calculated according to eq 1 and The IC50 value was calculated as explained above for MMP-2 and MMP-9.

MMP-7 = MMP-7 (Homo sapiens (Human), UniProt P09237); assay: MMP-7 inhibition assay (fluorogenic peptide substrate); details: recombinant MMP-7 8.3 nM, Mca-PLGL-Dpa-AR-NH2 10 μM, 4 hours at room temperature; tested at 1, 10, 100 and 200 μM
MMP-7, sequence (P09237 95-267): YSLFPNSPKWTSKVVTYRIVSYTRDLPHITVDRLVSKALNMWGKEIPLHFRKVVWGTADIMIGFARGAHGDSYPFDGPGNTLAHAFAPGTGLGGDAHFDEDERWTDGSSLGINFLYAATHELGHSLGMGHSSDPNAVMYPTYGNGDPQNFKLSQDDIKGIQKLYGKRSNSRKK
Method: as §1
Recombinant MMP-7 expressed in E. Coli was obtained from Merck-Millipore (catalog number 44270). Mca-PLGL-Dpa-AR-NH2 (fluorogenic peptide substrate) was obtained from R&D Systems (catalog number ES001).
Preparation of the MMP-7 for the activity assay: MMP-7 was provided as a stock solution (2.1 mg/mL). The enzyme was diluted in water to a final concentration of 0.005 mg/mL.
MMP-7 peptide substrate was provided as a solid (1 mg). A 4 mM stock solution of the substrate in DMSO was obtained by adding 214.7 μL of DMSO. After which, a 100 μM solution of substrate was prepared in 1× reaction buffer.
as §2, with “MMP-7” for “MMP-3”, “8.3” for “7.7”
as §3, §4

Compound	IC50 (MMP-2) [µM]	IC50 (MMP-3) [µM]	IC50 (MMP-7) [µM]	MMP-3 IC50 (MMP-3) [µM]
CCC(C)[C@@H](C(=O)N[C@@H](CCNC(=O)c1cc(F)cc(F)c1)C(=O)NO)N(C)C(=O)[C@@H]1CCCN1C(=O)CCN(C)C(C)=O (stereo partly drawn) [Example 13, (2S)-1-[3-[acetyl(methyl)amino]propanoyl]-N-[(1S)-1-[[(1S)-3-[(3,5-difluorobenzoyl)amino]-1-(hydroxycarbamoyl)propyl]carbamoyl]-2-methyl-butyl]-N-methyl-pyrrolidine-2-carboxamide]	1.15	200	50.4	
CCCC(=O)N1CCC[C@H]1C(=O)N(C)[C@H](C(=O)N[C@@H](CCNC(=O)c1cc(F)cc(F)c1)C(=O)NO)C(C)CC (stereo partly drawn) [Example 4, (2S)-1-butanoyl-N-[(1S)-1-[[(1S)-3-[(3,5-difluorobenzoyl)amino]-1-(hydroxycarbamoyl)propyl]carbamoyl]-2-methyl-butyl]-N-methyl-pyrrolidine-2-carboxamide]	0.062	13.3	4.42	
CCCCCC(=O)N1CC(F)(F)C[C@H]1C(=O)N(C)[C@H](C(=O)N[C@@H](CCNC(=O)c1cc(F)cc(F)c1)C(=O)NO)C(C)CC (stereo partly drawn) [Example 7, (2S)—N-[(1S)-1-[[(1S)-3-[(3,5-difluorobenzoyl)amino]-1-(hydroxycarbamoyl)propyl]carbamoyl]-2-methyl-butyl]-4,4-difluoro-1-hexanoyl-N-methyl-pyrrolidine-2-carboxamide]	0.159	22.5	7.71	
CCCCCC(=O)N1CCC[C@H]1C(=O)N(C)[C@H](C(=O)N[C@@H](CCNC(=O)c1cc(F)cc(F)c1)C(=O)NO)C(C)CC (stereo partly drawn) [Example 3, (2S)—N-[(1S)-1-[[(1S)-3-[(3,5-difluorobenzoyl)amino]-1-(hydroxycarbamoyl)propyl]carbamoyl]-2-methyl-butyl]-1-hexanoyl-N-methyl-pyrrolidine-2-carboxamide]	0.081	25.4	6.61	
CCC(C)[C@@H](C(=O)N[C@@H](CCNC(=O)c1cc(F)cc(F)c1)C(=O)NO)N(C)C(=O)[C@@H]1CCCN1C(=O)[C@H](C)N(C)C(C)=O (stereo partly drawn) [Example 12, (2 S)-1-[(2S)-2-[acetyl(methyl)amino]propanoyl]-N-[(1S)-1-[[(1S)-3-[(3,5-difluorobenzoyl)amino]-1-(hydroxycarbamoyl)propyl]carbamoyl]-2-methyl-butyl]-N-methyl-pyrrolidine-2-carboxamide] (Ac-[NMeA]P[NMeIle(3ξ)][Dab](Benzoyl(3,5-F2))-{NHOH})	0.021	157	14.1	
CCC(C)[C@@H](C(=O)N[C@@H](CCNC(=O)c1cc(F)cc(F)c1)C(=O)NO)N(C)C(=O)[C@@H]1CCCN1C(=O)CC(C)C (stereo partly drawn) [Example 5, (2S)—N-[(1S)-1-[[(1S)-3-[(3,5-difluorobenzoyl)amino]-1-(hydroxycarbamoyl)propyl]carbamoyl]-2-methyl-butyl]-N-methyl-1-(3-methylbutanoyl)pyrrolidine-2-carboxamide]	0.116	25.7	3.48	
CCCCCC(=O)N1C[C@H](F)C[C@H]1C(=O)N(C)[C@H](C(=O)N[C@@H](CCNC(=O)c1ccccc1)C(=O)NO)C(C)CC (stereo partly drawn) [Example 16, (2S,4R)—N-[(1S)-1-[[(1S)-3-benzamido-1-(hydroxycarbamoyl)propyl]carbamoyl]-2-methyl-butyl]-4-fluoro-N-methyl-1-hexanoyl-pyrrolidine-2-carboxamide] (Hexanoyl-[Pro(trans-4-F)]-[NMeIle(3ξ)]-[Dab](Bz)-{NHOH})	< 0.001		1	<1
CC(=O)N1CCC[C@H]1C(=O)N[C@@H](CCC(N)=O)C(=O)N[C@@H](Cc1c[nH]c2ccccc12)C(=O)NO [Example C17, (2S)-2-[[(2S)-1-acetylpyrrolidine-2-carbonyl)amino]-N-[(1S)-2-(hydroxyamino)-1-(1H-indol-3-ylmethyl)-2-oxo-ethyl]pentanediamide, reference compound] (Ac-Pro-Gln-Trp-{NHOH})	110	3.1	> 2000	
CCC(C)[C@@H](C(=O)N[C@@H](CCNC(=O)c1cc(F)cc(F)c1)C(=O)NO)N(C)C(=O)[C@@H]1CCCN1C(=O)CCCOc1ccccc1 (stereo partly drawn) [Example 9, (2S)—N-[(1S)-1-[[(1S)-3-[(3,5-difluorobenzoyl)amino]-1-(hydroxycarbamoyl)propyl]carbamoyl]-2-methyl-butyl]-N-methyl-1-(4-phenoxybutanoyl)pyrrolidine-2-carboxamide]	0.362	3.2	40.3	
CCC(C)[C@@H](C(=O)N[C@@H](CCNC(=O)c1cc(F)cc(F)c1)C(=O)NO)N(C)C(=O)[C@@H]1CCCN1C(C)=O (stereo partly drawn) [Example 2, (2S)-1-acetyl-N-[(1S)-1-[[(1S)-3-[(3,5-difluorobenzoyl)amino]-1-(hydroxycarbamoyl)propyl]carbamoyl]-2-methyl-butyl]-N-methyl-pyrrolidine-2-carboxamide]	0.242	19.2	31.4	
CCCC(CCC)C(=O)N1CCC[C@H]1C(=O)N(C)[C@H](C(=O)N[C@@H](CCNC(=O)c1cc(F)cc(F)c1)C(=O)NO)C(C)CC (stereo partly drawn) [Example 8, (2S)—N-[(1S)-1-[[(1S)-3-[(3,5-difluorobenzoyl)amino]-1-(hydroxycarbamoyl)propyl]carbamoyl]-2-methyl-butyl]-N-methyl-1-(2-propylpentanoyl)pyrrolidine-2-carboxamide]	0.974	3.81	4.1	
CCCCCC(=O)N1CCC[C@H]1C(=O)N(C)[C@H](C(=O)N[C@@H](CCNC(=O)c1ccccc1)C(=O)NO)C(C)CC (stereo partly drawn) [Example 15, (2S)—N-[(1S)-1-[[(1S)-3-benzamido-1-(hydroxycarbamoyl)propyl]carbamoyl]-2-methyl-butyl]-N-methyl-1-hexanoyl-pyrrolidine-2-carboxamide] (Hexanoyl-Pro-[NMeIle(3ξ)]-[Dab](Bz)-{NHOH})	0.285	9.89	41.2	
